Reference: patent publication US10577349B2 (Sanford Burnham Prebys Medical Discovery Institute, priority 2015, dated 2020)

Test system: UACC903 (BRAF mutant) cell line
Assay: Reverse phase protein array analysis (RPPA), UACC903
Format: cell-based, human
Conditions: UACC903, 1 μM, 24 h
Procedure: UACC903 and WM1346 cells were treated with DMSO (controls) or 1 μM Compound 38 for 24 h in triplicate. Cells were lysed with lysis buffer (1% Triton X-100, 50 mM HEPES, pH 7.4, 150 mM NaCl, 1.5 mM MgCl2, 1 mM EGTA, 100 mM NaF, 10 mM Na pyrophosphate, 1 mM Na3VO4, 10% glycerol, with freshly added protease and phosphatase inhibitors) and centrifuged at 13,000 g for 20 minutes. Denatured protein lysates containing the same amount of protein were then subjected to RPPA analysis at the RPPA Core Facility, Md. Anderson Cancer Center, as previously described (Tibes. R., et al. Reverse phase protein array: validation of a novel proteomic technology and utility for analysis of primary leukemia specimens and hematopoietic stem cells. Molecular cancer therapeutics 5, 2512-2521 (2006)),
A reverse phase protein array (RPPA) analysis of BRAF- and NRAS-mutant melanomas was performed to identify protein networks affected by Compound 38 (Table 4).

**Q.** With `O=C(/C=C/c1cncc(F)c1)c1c(-c2ccccc2)c2cc(Cl)ccc2[nH]c1=O` [Compound 38, 6-Chloro-3-[3-(5-fluoro-pyridin-3-yl)-acryloyl]-4-phenyl-1H-quinolin-2-one] as the compound, how does the “Ratio [Compound 38/DMSO] A-Raf” value read?
**A.** 0.91

**Q.** And the “Ratio [Compound 38/DMSO] AR” value?
**A.** 0.92

**Q.** What about the “Ratio [Compound 38/DMSO] ATM” value of the same compound?
**A.** 0.79

**Q.** And the “Ratio [Compound 38/DMSO] ATR” value?
**A.** 0.84

**Q.** And the “Ratio [Compound 38/DMSO] BRCA2” value?
**A.** 0.96

**Q.** And the “Ratio [Compound 38/DMSO] C-Raf” value?
**A.** 0.92

**Q.** What about the “Ratio [Compound 38/DMSO] Chk1” value of the same compound?
**A.** 0.89

**Q.** What about the “Ratio [Compound 38/DMSO] Ets-1” value of the same compound?
**A.** 0.92

**Q.** And the “Ratio [Compound 38/DMSO] GCN5L2” value?
**A.** 0.88

**Q.** And the “Ratio [Compound 38/DMSO] INPP4b” value?
**A.** 0.93

**Q.** What about the “Ratio [Compound 38/DMSO] MSH6” value of the same compound?
**A.** 0.76

**Q.** And the “Ratio [Compound 38/DMSO] PI3K-p85” value?
**A.** 0.93

**Q.** What about the “Ratio [Compound 38/DMSO] PI3K-p110-alpha” value of the same compound?
**A.** 0.94

**Q.** And the “Ratio [Compound 38/DMSO] Rad51” value?
**A.** 0.93

**Q.** And the “Ratio [Compound 38/DMSO] Raptor” value?
**A.** 0.86

**Q.** What about the “Ratio [Compound 38/DMSO] Rictor_pT1135” value of the same compound?
**A.** 0.84

**Q.** And the “Ratio [Compound 38/DMSO] S6_pS235_S236” value?
**A.** 0.63

**Q.** What about the “Ratio [Compound 38/DMSO] S6_pS240_S244” value of the same compound?
**A.** 0.61

**Q.** What about the “Ratio [Compound 38/DMSO] Stat5a” value of the same compound?
**A.** 0.85

**Q.** And the “Ratio [Compound 38/DMSO] Tuberin” value?
**A.** 0.62

**Q.** What about the “Ratio [Compound 38/DMSO] YB1” value of the same compound?
**A.** 0.77

**Q.** What about the “Ratio [Compound 38/DMSO] c-Kit” value of the same compound?
**A.** 0.86

**Q.** And the “Ratio [Compound 38/DMSO] c-Myc” value?
**A.** 0.72

**Q.** What about the “Ratio [Compound 38/DMSO] mTOR” value of the same compound?
**A.** 0.90

**Q.** And the “Ratio [Compound 38/DMSO] mTOR_pS2448” value?
**A.** 0.72

**Q.** What about the “Ratio [Compound 38/DMSO] p70-S6K_pT389” value of the same compound?
**A.** 0.82
